Experimental data taken from patent US10512673B2, “Use of peptide-based inhibitors of the stat3-IL10 pathway for treating bacterial infection and granulomatous disease” (The United States of America, as Represented by the …, priority 2015, dated 2019).
Entries after “also recorded” stand apart in the source; their conditions may differ. Where no end group is shown, it is not given here. [ ]: non-standard residue; d: D form. The star is where a group is joined. Palmitoyl = CCCCCCCCCCCCCCCC(=O)*

Tests used:
[1] = system: Mycobacterium tuberculosis (Erdman strain); conditions: in vivo
IFNγ = experiment: Cytometric bead array for IFNγ in lung homogenates; type: in vivo, C57BL/6 mice; conditions: CBA, 100 μg/dose, vs control mice
Il-10 [2] = experiment: Cytometric bead array for IL-10 in lung homogenates; parameters: species or system C57BL/6 mice; conditions: mouse, in vivo
beclin-1 = experiment: qRT-PCR of beclin-1 transcript in lungs; type: in vivo, C57BL/6 mice; conditions: 100 μg/dose
Method: (§1) The upper right lobe of the lungs from each mouse were homogenized in Trizol (Invitrogen) using Next Advance bullet blender (Averill Park, N.Y.) and frozen at −80° C. immediately. RNA was extracted following the manufacturer's protocol. Trizol DNA was digested with RQ1 RNase-free DNase (Promega, Madison, Wis.) and RNA was re-isolated using Trizol. Finally, the concentration of RNA in each sample was measured by spectrophotometry and the RNA was reverse transcribed with M-Mulv (New England Bio Labs, Ipswich, Mass.) and random hexamers (Roche, Basel, Switzerland).
(§2) When lung homogenates from each mouse were used to determine the levels of expression of Bcl-2 and Atg-5 protein using ELISA, the results were similar to those obtained by qRT-PCR.

Il-10 [3] = system: Il-10; parameters: species or system C57BL/6 mice; conditions: mouse, in vivo
bax = experiment: qRT-PCR of bax transcript in lungs; type: in vivo, C57BL/6 mice; conditions: 100 μg/dose
Method: as §1, §2

arg1 [4] = experiment: RT-PCR of arg1 transcript in lungs; type: in vivo, C57BL/6 mice; conditions: for mRNA arg1 expression (in words): mouse, in vivo
lysozyme = experiment: Lysozyme assay in lung homogenates; type: in vivo, C57BL/6 mice; conditions: 100 μg/dose, vs untreated infected mice
Method: (§3) The quantification of end effector molecules and enzymes involved in the host antimicrobial activity in the lungs of mice were performed using lung homogenates obtained as indicated above. Lung homogenate supernatants were used in a Griess reaction (G 7921, Molecular probes, Invitrogen, Eugene, Oreg.), Arginase assay (Bioassay Systems, DARG-200), NADPH (Bioassay Systems, ECNP-100), and lysozyme (Molecular Probes E-22013).
The Lysozyme assay was performed as per manufacturer's instructions. Briefly, experimental samples were first diluted in 1× reaction buffer. A volume of 50 μl was used for each reaction. Then, 50 μl of the 50 μg/ml DQ lysozyme substrate were added to each microplate well containing the experimental or the standard curve samples. The reaction mix was then incubated at 37° C. for 30 min protected from light. The fluorescence in each of the samples was measured at absorption maxima at ˜494 nm and fluorescence emission maxima at ˜518 nm.

arg1 [5] = experiment: Arginase activity in lung homogenates; type: in vivo, C57BL/6 mice; conditions: 100 μg/dose, vs untreated infected mice
Method: as §3
The level of arginase activity in each lung homogenate was performed using the Quanti-Chrom Arginase Assay Kit (Bio Assay Systems, Hayward, Calif.). Briefly, protein concentration was normalized to 100 μg/ml. As a control, an aliquot of normalized protein was heat-inactivated at 90° C. for 10 min. 40 μl of untreated or heat-inactivated sample was incubated at 37° C. for 60 min with 10 μl of 5× reagent. Thereafter, the reaction was processed as recommended by the manufacturer and analyzed in a plate reader (Bio-Rad, Hercules, Calif.) at an absorbance of 430 nm. The absorbance of the heat-inactivated sample was subtracted from the respective untreated sample and then compared to urea standards. Activity of the arginase was reported in mU/mg of protein.

bcl-2 [6] = experiment: qRT-PCR of bcl-2 transcript in lungs; type: in vivo, C57BL/6 mice; conditions: 100 μg/dose
Method: as §1, §2

TNFα = experiment: Cytometric bead array for TNFα in lung homogenates; type: in vivo, C57BL/6 mice; conditions: CBA, 100 μg/dose, vs control mice
nos2 [7] = experiment: RT-PCR of nos2 transcript in lungs; type: in vivo, C57BL/6 mice; conditions: for mRNA nos2 expression (in words): mouse, in vivo
IL-12p40 = experiment: Cytometric bead array for IL-12p40 in lung homogenates; type: in vivo, C57BL/6 mice; conditions: CBA, 100 μg/dose, vs control mice
nos2 [8] = experiment: NOS2 activity in lung homogenates (Griess reaction); type: in vivo, C57BL/6 mice; conditions: 100 μg/dose, vs untreated infected mice
Method: as §3
For the Griess reaction, reagents were acclimated at room temperature for 20 min prior to the assay. Thereafter, the samples were centrifuged at 1200 rpm for 2 min and the Griess reaction was performed following the manufacturer's instructions. Briefly, samples and prepared standards were diluted following the manufacturer's instructions with distilled sterile water in a 96 well plate. 20 μl of Griess reaction were added to each reaction well. Samples and standards were incubated for 30 minutes in the dark. Thereafter, samples were read using a Biotech Synergy 2 Multi-Mode Micro Plate Reader [U5] spectrophotometer at 546 nm.

NADPH = NADPH assay in lung homogenates; type: in vivo, C57BL/6 mice; conditions: 100 μg/dose, vs untreated infected mice
Method: as §3
For the NADPH assay, each lung homogenate was mixed in a 1.5 mL Eppendorf tube with 100 μL NADPH extraction buffer for NADPH determination. Extracts then were heated at 60° C. for 5 min and then 20 μl assay buffer and 100 μl of the opposite extraction buffer were added to neutralize the extracts. Samples were briefly vortexed and centrifuged at 13,000 rpm for 5 min. The resulting supernatant was used for NADPH assays. 40 μl of standards were then transferred into wells of a clear bottom 96-well plate. For each well of the reaction, 80 μL working reagent were added per well quickly. Optical density for time “zero” (OD0) optical density after 30 min incubation (OD30) at room temperature were read at 565 nm (520-600 nm).

atg5 = experiment: qRT-PCR of atg5 transcript in lungs; type: in vivo, C57BL/6 mice; conditions: 100 μg/dose
Method: as §1, §2

pSTAT3 (pY705) = experiment: ELISA for pSTAT3 in lung homogenates; type: in vivo, C57BL/6 mice; conditions: after two weeks of treatment (100 μg/dose), vs untreated infected mice
Method: Lung homogenates were screened for pSTAT3 (pY705 (tyrosine 705)) by ELISA following manufacturer's recommendations (Life Technologies). Briefly, the lung homogenates were re-suspended in the cell extraction buffer and incubated during 30 minutes on ice with intermittent vortexing followed by pelleting of the cell debris. Supernatants from each sample were collected and screened for their content of STAT3 (pY705). Standards were prepared using purified recombinant phosphorylated STAT3 protein. Thereafter, 100 μl of standards and diluted samples or control aliquots were distributed into microtiter wells and were incubated in the wells pre-coated with anti-pSTAT3 antibody. The reactions were developed using the detection anti-pSTAT3 antibody followed by 30 minutes incubation at RT with anti-rabbit IgG HRP. The reactions were visualized by incubation with a chromogenic substrate of HRP during 30 minutes at room temperature. The reactions were stopped with 100 μl of stop solution added to each well. Absorbance for each well was read at 450 nm.

stat3 = system: stat3; parameters: species or system C57BL/6 mice; conditions: mouse, in vivo
[9] = mouse, in vivo
pSTAT3 = experiment: Immunohistochemistry for pSTAT3 in lung tissue sections; parameters: species or system C57BL/6 mice; conditions: mouse, in vivo
IL-6 = experiment: Cytometric bead array for IL-6 in lung homogenates; type: in vivo, C57BL/6 mice; conditions: CBA, 100 μg/dose, vs control mice
bcl-2 [10] = experiment: ELISA for Bcl-2 protein in lung homogenates; type: in vivo, C57BL/6 mice; conditions: 100 μg/dose, vs untreated infected mice
Source text: as §2

[11] = system: granuloma lesions in the lungs; experiment: Lung histopathology (H&E); parameters: species or system C57BL/6 mice; conditions: mouse, in vivo
[12] = system: Mycobacterium tuberculosis (Erdman strain); conditions: in vivo; remark: listed apart in the source
[13] = RT-PCR, lungs, 100 μg/dose, vs control mice

Substance | change of pulmonary CFU (in words) [1] | level of IFNγ expression in the lungs (IFNγ) | level of IL-10 in lung homogenates (Il-10 [2]) | expression of beclin-1 transcript (in words) (beclin-1) | pulmonary expression of il-10 transcript (Il-10 [3]) | expression of bax transcript (in words) (bax) | lysozyme activity (DQ substrate) (lysozyme) | Arg1 activity (arg1 [5]) | expression of bcl-2 transcript (in words) (bcl-2 [6]) | level of TNFα in the lungs (TNFα) | expression level of IL-12p40 in the lungs (IL-12p40) | NOS2 activity (concentration of NO) (nos2 [8]) | NADPH activity (pyridine nucleotide) (NADPH) | expression of atg5 transcript (in words) (atg5) | level of pSTAT3 in lung homogenates (pSTAT3 (pY705)) | pulmonary expression of stat3 transcript (stat3) | reduction of pulmonary bacterial load [1] | pSTAT3 staining by IHC in lung tissue sections (pSTAT3) | mRNA arg1 expression (in words) (arg1 [4]) | expression level of IL-6 in the lungs (IL-6) | other results
Ac-EETQLSPKTSGFGSDTSGHLK-E-Pal (Ac-[dE][dE][dT][dQ][dL][dS][dP][dK][dT][dS]G[dF]G[dS][dD][dT][dS]G[dH][dL][dK](Palmitoyl); not fully specified; also: name K-E-Pal / C-terminal Glu-palmitoyl: Glu between Lys and palmitoyl?) [IL10R1-14] | slight increase; also recorded: only the group of mice receiving the peptide inhibitor ST3-H2A2 had reduced the pulmonary CFU | increased and up | no significant changes | reduced expression | no significant changes | reduced expression | lower or no increase | increased | reduced expression | reduced | down | lower or no increase | lower or no increase | increased expression | no significant changes | no significant changes | – | – | – | – | increase in arg1 transcript expression (arg1 [4]; [13]): 10 fold; increase in nos2 transcript expression (nos2 [7]; [13]): 2 fold
LDTRYLEQLHKLY [ST3-H2A2] | – | decreased and down | little change | – | increased levels of expression | – | significantly elevated | reduced or not changed | – | reduced | increased and up | significantly elevated | significantly elevated | – | little change | no significant changes | 1.7 log10 CFU | reduced levels of pSTAT3 staining in the center of the granuloma lesions | decreased expression | increased | reduction of pulmonary CFU [1]: 0.6 log10; increase in expression of beclin-1 transcript (beclin-1): > 3 fold; increase in expression of bax transcript (bax): > 3 fold; adverse effects during treatment (body weight) [9]: mild weight loss; increase in expression of bcl-2 transcript (bcl-2 [6]): > 3 fold; mRNA nos2 expression (in words) (nos2 [7]): increased more significantly; level of Bcl-2 protein in lung homogenates (bcl-2 [10]): significantly increased; histopathology of H&E stained lung sections [11]: increased numbers of clusters and highly packed lymphocytes; increase in expression of atg5 transcript (atg5): > 3 fold; reduction of splenic bacilli load [12]: 0.9 log10CFU
ε-Pal-KLVTLPLISSLQSSE-NH2 (K(Palmitoyl)LVTLPLISSLQSSE-NH2; N-terminus assumed; SMILES CCCCCCCCCCCCCCCC(=O)NCCCC[C@H](N)C(=O)N[C@@H](CC(C)C)C(=O)N[C@H](C(=O)N[C@H](C(=O)N[C@@H](CC(C)C)C(=O)N1CCC[C@H]1C(=O)N[C@@H](CC(C)C)C(=O)N[C@H](C(=O)N[C@@H](CO)C(=O)N[C@@H](CO)C(=O)N[C@@H](CC(C)C)C(=O)N[C@@H](CCC(N)=O)C(=O)N[C@@H](CO)C(=O)N[C@@H](CO)C(=O)N[C@@H](CCC(=O)O)C(N)=O)[C@@H](C)CC)[C@@H](C)O)C(C)C) [IL10R1-7] | only the group of mice receiving the peptide inhibitor ST3-H2A2 had reduced the pulmonary CFU | decreased and down | lower levels | reduced expression | lower levels | reduced expression | significantly elevated | reduced or not changed | reduced expression | reduced and down | decreased and up | significantly elevated | significantly elevated | increased expression | lower levels | lower levels | 0.6 | reduced levels of pSTAT3 staining in the center of the granuloma lesions | reduction | decreased | mRNA nos2 expression (in words) (nos2 [7]): reduction in transcript expression for nos2 and arg1 but not significantly for nos2; histopathology of H&E stained lung sections [11]: increased numbers of clusters and highly packed lymphocytes
